Reference: US12257246B2, “Composition of 2,4,6-trifluoro-n-[6-(1-methyl-piperidin-4-carbonyl)-pyridin-2-yl[-benzamide” (CoLucid Pharmaceuticals, Inc., priority 2009, dated 2025)

How the values were obtained:
[1] = tested on: neuronal protein extravasation; test: Protein extravasation assay (trigeminal ganglion stimulation); assay type: in vivo, rats or guinea pigs; conditions: intravenous
Method: Harlan Sprague-Dawley rats (225-325 g) or guinea pigs from Charles River Laboratories (225-325 g) were anesthetized with sodium pentobarbital intraperitoneally (65 mg/kg or 45 mg/kg respectively) and placed in a stereotaxic frame (David Kopf Instruments) with the incisor bar set at −3.5 mm for rats or −4.0 mm for guinea pigs. Following a midline sagital scalp incision, two pairs of bilateral holes were drilled through the skull (6 mm posterially, 2.0 and 4.0 mm laterally in rats; 4 mm posteriorly and 3.2 and 5.2 mm laterally in guinea pigs, all coordinates referenced to bregma). Pairs of stainless steel stimulating electrodes, insulated except at the ends (Rhodes Medical Systems, Inc.), were lowered through the holes in both hemispheres to a depth of 9 mm (rats) or 10.5 mm (guinea pigs) from dura. […]
A fluorescence microscope (Zeiss) equipped with a grating monchromator and a spectrophotometer was used to quantify the amount of Evans Blue dye in each sample. An excitation wavelength of approximately 535 nm was utilized and the emission intensity at 600 nm was determined. […] This facilitated the computer-controlled movement of the stage with fluorescence measurements at 25 points (500 μm steps) on each dural sample. The mean and standard deviation of the measurements were determined by the computer. […]

rabbit saphenous vein = test: Rabbit saphenous vein contraction

SMILES: CN1CCC(C(=O)c2cccc(NC(=O)c3c(F)cc(F)cc3F)n2)CC1 [Compound I, 2,4,6-trifluoro-N-[6-(1-methyl-piperidin-4-ylcarbonyl)-pyridin-2-yl]-benzamide]
- inhibition of neuronal protein extravasation [1]: significantly inhibit neuronal protein extravasation
- solubility (Solubility (statement)): high solubility
- vasoconstrictive activity (rabbit saphenous vein): not be significantly vasoconstrictive
